# Source: ChEMBL document CHEMBL5512667, “Discovery of Potent, Selective, and Orally Available IRE1α Inhibitors Demonstrating Comparable PD Modulation to IRE1 Knockdown in a Multiple Myeloma Model” (J Med Chem, 2024)
# Target: T1, Serine/threonine-protein kinase/endoribonuclease IRE1 (Homo sapiens, UniProt O75460)
# Test: Inhibition of IRE1alpha RNase activity (unknown origin) using XBP1 as substrate preincubated for 1 hr followed by thapsigargin stimulation for 5 hrs by One-Glo luciferase reagent based luminescence assay
# Settings: not given
# T1 sequence (O75460 whole entry): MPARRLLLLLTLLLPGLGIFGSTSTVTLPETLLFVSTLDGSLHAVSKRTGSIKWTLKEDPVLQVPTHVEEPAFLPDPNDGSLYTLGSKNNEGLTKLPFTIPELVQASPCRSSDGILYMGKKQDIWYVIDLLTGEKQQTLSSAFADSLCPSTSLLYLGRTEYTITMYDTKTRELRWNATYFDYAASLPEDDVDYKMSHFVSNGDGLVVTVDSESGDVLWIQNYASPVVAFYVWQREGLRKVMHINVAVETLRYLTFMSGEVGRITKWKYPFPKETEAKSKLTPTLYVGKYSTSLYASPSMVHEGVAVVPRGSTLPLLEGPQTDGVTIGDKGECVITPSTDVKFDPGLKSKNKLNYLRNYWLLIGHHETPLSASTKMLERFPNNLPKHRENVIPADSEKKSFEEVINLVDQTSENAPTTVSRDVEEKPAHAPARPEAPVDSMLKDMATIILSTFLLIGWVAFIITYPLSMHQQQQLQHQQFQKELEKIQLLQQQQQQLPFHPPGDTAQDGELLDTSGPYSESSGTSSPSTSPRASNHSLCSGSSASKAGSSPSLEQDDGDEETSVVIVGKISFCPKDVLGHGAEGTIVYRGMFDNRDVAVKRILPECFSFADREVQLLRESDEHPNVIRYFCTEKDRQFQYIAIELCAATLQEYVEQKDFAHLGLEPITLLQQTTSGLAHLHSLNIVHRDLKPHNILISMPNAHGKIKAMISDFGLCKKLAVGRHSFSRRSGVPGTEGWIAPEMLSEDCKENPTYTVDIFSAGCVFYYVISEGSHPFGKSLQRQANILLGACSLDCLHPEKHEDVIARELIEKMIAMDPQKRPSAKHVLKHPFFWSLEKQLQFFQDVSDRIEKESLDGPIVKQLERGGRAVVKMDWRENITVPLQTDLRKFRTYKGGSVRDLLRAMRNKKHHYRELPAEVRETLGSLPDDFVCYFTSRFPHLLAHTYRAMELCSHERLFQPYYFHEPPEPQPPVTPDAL
row,SMILES,IC50
1,Cc1cc(NS(=O)(=O)Cc2ccccc2)ccc1Oc1ncccc1-c1ccnc(N[C@H]2CCCNC2)n1,4400 nM
2,Cc1ccc2c(NS(=O)(=O)c3ccccc3Cl)cccc2c1Oc1ncccc1-c1ccnc(N[C@@H]2CNCC(F)(F)C2)n1,2300 nM
3,CC(C)(C)c1nc(-c2ccc(NC(=O)Nc3cccc(C(F)(F)F)c3)c3ccccc23)c2c(N)nccn12,180 nM
4,Cc1ccc2c(NS(=O)(=O)c3ccccc3Cl)cccc2c1Oc1ncccc1-c1ccnc(N)n1,32000 nM
5,Cc1ccc2c(NS(=O)(=O)c3ccccc3Cl)cccc2c1Oc1ncccc1-c1ccnc(N[C@H]2CCCN(CC(F)(F)F)C2)n1,28000 nM
6,Cc1ccc2c(NS(=O)(=O)c3ccccc3Cl)cccc2c1Oc1ncccc1-c1ccnc(Nc2cn[nH]c2)n1,> 50000 nM
7,Cc1ccc2c(NS(=O)(=O)c3ccccc3Cl)cccc2c1Oc1ncccc1-c1ccnc(N[C@@H]2CCCNC2)n1,2300 nM

# Results, then the molecule that gave them:
row,IC50,SMILES
1,140 nM,CCCS(=O)(=O)Nc1cccc2c(Oc3ncccc3-c3ccnc(N[C@H]4CCCNC4)n3)c(C)ccc12
2,200 nM,Cc1ccc2c(NS(=O)(=O)C3CCCCC3)cccc2c1Oc1ncccc1-c1ccnc(N[C@H]2CCCNC2)n1
3,310 nM,Cc1cc(NS(=O)(=O)Cc2ccccc2)c(F)cc1Oc1ncccc1-c1ccnc(N[C@H]2CCCNC2)n1
4,2700 nM,O=S(=O)(Cc1ccccc1)Nc1c(F)cc(Oc2ncccc2-c2ccnc(N[C@@H]3CNC[C@H](F)C3)n2)c(F)c1F
5,84 nM,Cc1ccc2c(NS(=O)(=O)CCC(F)(F)F)cccc2c1Oc1ncccc1-c1ccnc(N[C@H]2CCCNC2)n1
6,540 nM,O=S(=O)(Cc1ccccc1)Nc1c(F)cc(Oc2ncccc2-c2ccnc(N[C@@H]3CNC[C@@H](CF)C3)n2)c(F)c1F
7,40 nM,Cc1ccc2c(NS(=O)(=O)c3ccccc3Cl)cccc2c1Oc1ncccc1-c1ccnc(N[C@H]2CCCNC2)n1
8,35 nM,Cc1ccc2c(NS(=O)(=O)CCC(F)(F)F)c(F)ccc2c1Oc1ncccc1-c1ccnc(N[C@H]2CCCNC2)n1
9,18 nM,Cc1ccc2c(NS(=O)(=O)Cc3ccccc3)cccc2c1Oc1ncccc1-c1ccnc(N[C@H]2CCCNC2)n1

# Target: T1, Serine/threonine-protein kinase/endoribonuclease IRE1
# Test: Inhibition of IRE1alpha RNase activity (Q470 to L977 residues) (unknown origin) expressed in Sf9 cells using mini-XBP-1 stem-loop RNA as substrate measured every 2 mins interval for 50 mins by FRET assay
# Settings: not given
row,SMILES,IC50
1,Cc1cc(NS(=O)(=O)Cc2ccccc2)ccc1Oc1ncccc1-c1ccnc(N[C@H]2CCCNC2)n1,170 nM
2,Cc1ccc2c(NS(=O)(=O)c3ccccc3Cl)cccc2c1Oc1ncccc1-c1ccnc(N[C@@H]2CNCC(F)(F)C2)n1,250 nM
3,CC(C)(C)c1nc(-c2ccc(NC(=O)Nc3cccc(C(F)(F)F)c3)c3ccccc23)c2c(N)nccn12,200 nM
4,Cc1ccc2c(NS(=O)(=O)c3ccccc3Cl)cccc2c1Oc1ncccc1-c1ccnc(N)n1,> 10000 nM
5,Cc1ccc2c(NS(=O)(=O)c3ccccc3Cl)cccc2c1Oc1ncccc1-c1ccnc(N[C@H]2CCCN(CC(F)(F)F)C2)n1,> 10000 nM
6,Cc1ccc2c(NS(=O)(=O)c3ccccc3Cl)cccc2c1Oc1ncccc1-c1ccnc(Nc2cn[nH]c2)n1,> 10000 nM
7,Cc1ccc2c(NS(=O)(=O)c3ccccc3Cl)cccc2c1Oc1ncccc1-c1ccnc(N[C@@H]2CCCNC2)n1,420 nM

# Second part, the molecule after the results:
row,IC50,SMILES
1,6.3 nM,CCCS(=O)(=O)Nc1cccc2c(Oc3ncccc3-c3ccnc(N[C@H]4CCCNC4)n3)c(C)ccc12
2,17 nM,Cc1ccc2c(NS(=O)(=O)C3CCCCC3)cccc2c1Oc1ncccc1-c1ccnc(N[C@H]2CCCNC2)n1
3,14 nM,Cc1cc(NS(=O)(=O)Cc2ccccc2)c(F)cc1Oc1ncccc1-c1ccnc(N[C@H]2CCCNC2)n1
4,23 nM,O=S(=O)(Cc1ccccc1)Nc1c(F)cc(Oc2ncccc2-c2ccnc(N[C@@H]3CNC[C@H](F)C3)n2)c(F)c1F
5,8.7 nM,Cc1ccc2c(NS(=O)(=O)CCC(F)(F)F)cccc2c1Oc1ncccc1-c1ccnc(N[C@H]2CCCNC2)n1
6,15 nM,O=S(=O)(Cc1ccccc1)Nc1c(F)cc(Oc2ncccc2-c2ccnc(N[C@@H]3CNC[C@@H](CF)C3)n2)c(F)c1F
7,9.2 nM,Cc1ccc2c(NS(=O)(=O)c3ccccc3Cl)cccc2c1Oc1ncccc1-c1ccnc(N[C@H]2CCCNC2)n1
8,2.1 nM,Cc1ccc2c(NS(=O)(=O)CCC(F)(F)F)c(F)ccc2c1Oc1ncccc1-c1ccnc(N[C@H]2CCCNC2)n1
9,17 nM,Cc1ccc2c(NS(=O)(=O)Cc3ccccc3)cccc2c1Oc1ncccc1-c1ccnc(N[C@H]2CCCNC2)n1

# Target: T1, Serine/threonine-protein kinase/endoribonuclease IRE1
# Test: Inhibition of His-tagged IRE1alpha (G547 to L977 residues) (unknown origin) expressed in Sf9 cells preincubated with anti-His Europium labeled antibody for 1 hr prior to compound addition followed by tracer 236 addition and measured after 1 hr by TR-FRET assay
# Settings: not given
row,SMILES,IC50
1,Cc1cc(NS(=O)(=O)Cc2ccccc2)ccc1Oc1ncccc1-c1ccnc(N[C@H]2CCCNC2)n1,29 nM
2,Cc1ccc2c(NS(=O)(=O)c3ccccc3Cl)cccc2c1Oc1ncccc1-c1ccnc(N[C@@H]2CNCC(F)(F)C2)n1,17 nM
3,CC(C)(C)c1nc(-c2ccc(NC(=O)Nc3cccc(C(F)(F)F)c3)c3ccccc23)c2c(N)nccn12,36 nM
4,Cc1ccc2c(NS(=O)(=O)c3ccccc3Cl)cccc2c1Oc1ncccc1-c1ccnc(N)n1,> 1000 nM
5,Cc1ccc2c(NS(=O)(=O)c3ccccc3Cl)cccc2c1Oc1ncccc1-c1ccnc(N[C@H]2CCCN(CC(F)(F)F)C2)n1,> 1000 nM
6,Cc1ccc2c(NS(=O)(=O)c3ccccc3Cl)cccc2c1Oc1ncccc1-c1ccnc(Nc2cn[nH]c2)n1,> 1000 nM
7,Cc1ccc2c(NS(=O)(=O)c3ccccc3Cl)cccc2c1Oc1ncccc1-c1ccnc(N[C@@H]2CCCNC2)n1,46 nM

# Now those with a lower IC50, led by results:
row,IC50,SMILES
1,4.7 nM,CCCS(=O)(=O)Nc1cccc2c(Oc3ncccc3-c3ccnc(N[C@H]4CCCNC4)n3)c(C)ccc12
2,2.2 nM,Cc1ccc2c(NS(=O)(=O)C3CCCCC3)cccc2c1Oc1ncccc1-c1ccnc(N[C@H]2CCCNC2)n1
3,2.1 nM,Cc1cc(NS(=O)(=O)Cc2ccccc2)c(F)cc1Oc1ncccc1-c1ccnc(N[C@H]2CCCNC2)n1
4,2 nM,O=S(=O)(Cc1ccccc1)Nc1c(F)cc(Oc2ncccc2-c2ccnc(N[C@@H]3CNC[C@H](F)C3)n2)c(F)c1F
5,1.1 nM,Cc1ccc2c(NS(=O)(=O)CCC(F)(F)F)cccc2c1Oc1ncccc1-c1ccnc(N[C@H]2CCCNC2)n1
6,0.85 nM,Cc1cc(NS(=O)(=O)c2ccccc2Cl)c2ccccc2c1Oc1ncccc1-c1ccnc(N[C@H]2CC[C@H](N)CC2)n1
7,0.78 nM,O=S(=O)(Cc1ccccc1)Nc1c(F)cc(Oc2ncccc2-c2ccnc(N[C@@H]3CNC[C@@H](CF)C3)n2)c(F)c1F
8,0.48 nM,Cc1ccc2c(NS(=O)(=O)c3ccccc3Cl)cccc2c1Oc1ncccc1-c1ccnc(N[C@H]2CCCNC2)n1
9,0.39 nM,Cc1ccc2c(NS(=O)(=O)CCC(F)(F)F)c(F)ccc2c1Oc1ncccc1-c1ccnc(N[C@H]2CCCNC2)n1
10,0.35 nM,Cc1ccc2c(NS(=O)(=O)Cc3ccccc3)cccc2c1Oc1ncccc1-c1ccnc(N[C@H]2CCCNC2)n1

# Tested on: not listed separately
# Test: Permeability across apical to basolateral side in MDCK cells
# Format: ADME, cell-based, Canis lupus familiaris
# Settings: dog, read-out: permeability
row,SMILES,Papp A→B
1,Cc1ccc2c(NS(=O)(=O)c3ccccc3Cl)cccc2c1Oc1ncccc1-c1ccnc(N[C@H]2CCCNC2)n1,1 ×10⁻⁶ cm/s
